Patent publication US6436631B1, “Comparative phenotype analysis for assessment of biologically active compounds such as antimicrobials” (priority 2000, dated 2002)
Where a SMILES comes first, the peptide text is derived from it.

Columns and labels:
Format in all cases: cell-based
[1] = tested on: Saccharomyces cerevisiae (BY4741); assay: EA MicroPlate nutrient stimulation test without methionine (iodo-nitro-tetrazolium violet reduction); conditions: L-methionine well (25 μM); 30° C., 2 days, visual
Description: In this Example, the response of a yeast to various compounds was tested. The yeast used in these experiments was Saccharomyces cerevisiae (BY4741, obtained from Dr. Mark Johnston, Washington University, St. Louis, Mo.). The genotype of this strain was indicated as being Mat a (i.e., mating type “a”), ura-, his-, leu-, and met-. In these experiments, the ability of this strain to grow in a culture medium without methionine was investigated. Methionine interferes with the ability to test this organism for its utilization of other potential sulfur sources (i.e., if methionine is added to a culture medium the organism preferentially uses it as a sulfur source). The yeast was grown for 48 hours at 30° C. on R2A agar medium (Acumedia). Cells were removed from the agar surface with a sterile cotton swab and suspended at a cell density of 65% transmittance (as read using a BiologTM turbidimeter) in an inoculating fluid containing 50 mM glucose, 0.15 mM uracil, 0.15 mM L-histidine, 0.15 mM L-leucine, 0.15 mM MgCl2, 1.0 mM CaCl2, 2.0 mM NaCl, 1.0 mM KCl, 3.0 mM NH4Cl, 1.0 mM NaH2PO4, 0.1 mM Na2SO4, 0.01% iodo-nitro-tetrazolium violet, 0.01% phytagel (gellan gum), 0.03% pluronic F-68; the pH was adjusted to 6.0. The cell suspension (100 μl/well) was then used to inoculate a BiologTM EA MicroPlateTM, which tests the ability of a cell to be stimulated by a set of 95 different nutrients. The nutrients included within the microarray were: […] One well (A-1) contains no nutrients and is used as a reference (i.e., control) well. After inoculation, the microarray was incubated at 30° C. for 2 days and visually observed.

E. coli MG1655 = assay: phenotype microarray (PM) comparative profiling of antimicrobials, S-O-R scoring, distance matrix and dendrogram; conditions: 7 PMs; for clustering in dendrogram of PM S-O-R response (FIG. 4): 1x level of each antimicrobial (lowest concentration giving detectable inhibition of respiration), 665 phenotypes, 48 hours; for PM response pattern (fingerprint) of cells exposed to the antimicrobial: partially inhibitory concentrations (1x, 2x)
Source text: In this Example, experiments are described in which the feasibility of using PMs for analyzing the metabolic effects of antimicrobial compounds and their mechanisms of action were investigated. Specifically, the experiments were designed to determine whether compounds that act via interaction with specific bacterial proteins (“target-specific”) can be distinguished from those acting via non-specific mechanisms, solely on the basis of differences in signature metabolic profiles. In addition, the experiments were designed to determine whether different interactors of the same pathway produce a similar signature profile, as well as whether interactors of different pathways produce distinctly different profiles.
Twenty chemicals were selected for inclusion in these experiments. Fifteen of these, listed below in Table 3 as “single target antimicrobials” are thought to have relatively specific modes of action, whereas five antimicrobials, listed as “multiple target antimicrobials” are thought to have non-specific modes of action.
An initial set of experiments was performed to select the concentrations of each chemical as it was desirable to use a partially inhibitory concentration. A completely inhibitory or sub-inhibitory concentration would not provide any information. Partial inhibitory levels were determined using the criterion of decreased formation of purple color due to inhibition of tetrazolium violet reduction (i.e., respiration). Each compound was tested at two concentrations giving partial inhibition of respiration. The lower concentration, referred to as “1x,” was the lowest concentration giving detectable inhibition of respiration. The higher concentration, referred to as “2x,” was twice the 1x concentration. […] Thus, only 1x and 2x concentrations were used.
In these experiments, E. coli MG1655 was tested against 20 antimicrobials at two concentrations using 7 PMs each, for a total of 280 PMs. […] Since in these experiments each PM contains 95 phenotypes, the total number of phenotypes analyzed here was 26,600. Each PM was monitored kinetically every 15 minutes using a specialized instrument described is U.S. patent application Ser. No. 09/277,353 (herein incorporated by reference) for an incubation duration of 48 hours. Thus, the total number of data points for the experiments was 5,107,200.
The results of the data collected for a run is a kinetic phenotype of the cell exposed to an antimicrobial overlaid and compared against the phenotype of the cell without exposure to the antimicrobial. When the two kinetic tracings of tetrazolium reduction (i.e., cell respiration) overlap, there is no difference in the response to that phenotype (indicated as “O”). When the control tracing exceeds the antimicrobial tracing, the organism is scored as “more sensitive” or “S.” When the antimicrobial tracing exceeds the control tracing, the organism is scored as “more resistant,” or “R.” Based on visual examination of the PMs after incubation, the threshold values for judging S and R results were determined. The software then automatically calculated the areas under the differential tracings and applied threshold values to score all 26,600 phenotypes as S, O, or R.
From the S—O—R data, a distance matrix was generated. The S—O—R response (a string of 665 values) for one antimicrobial was compared to the response for another antimicrobial, and the differences summed up. A difference of O to S or of O to R was assigned a value of 1, and a difference of S to R was assigned a value of 2. The string of 665 differences was then summed up.

E. coli (MG1655) = assay: BAC combination (synergy/antagonism) testing in ES1, ES2 and ES3 MicroPlate sensitivity panels, tetrazolium violet
Description: In this Example, the susceptibility of E. coli (MG1655) was tested in the presence of vancomycin (10 μg/ml) or sulfamethoxazole (235 μg/ml) in microarrays containing various additional compounds. The microarrays were present in three Biolog™ sensitivity test panels, referred to as ES1, ES2 and ES3 MicroPlates™. The organisms were added to a sterile aqueous suspension containing 0.40% NaCl, 0.03% pluronic F68, 0.01% phytagel, and 0.01% tetrazolium violet, to a cell density of 85% transmittance (as measured using a BiologTm turbidimeter). The BAC to be tested was added to the suspension just prior to inoculating the organisms (100 μl/well) into the wells of the microarrays. The wells of these ES MicroPlates™ contained a basal broth medium consisting of tryptone (2 g/L), yeast extract (1 g/L), and NaCl (1 g/L). […]

CSCC[C@H](N)C(=O)O [L-methionine]
stimulation of growth/respiration (pink color) in medium without methionine [1]: increased pink color

CC1(C)S[C@@H]2[C@H](NC(=O)[C@H](N)c3ccccc3)C(=O)N2[C@H]1C(=O)O [ampicillin]
clustering in dendrogram of PM S-O-R response (FIG. 4) (E. coli MG1655): cluster

O=[N+]([O-])c1ncc[nH]1 [azomycin]
change of sensitivity of E. coli strain to panel compound (E. coli (MG1655); in the presence of 235 μg/ml sulfamethoxazole, azomycin at 0.2, 0.4, 0.8 and 1.6 μg/ml): increased sensitivity

CC[C@H](C)[C@H](N)C1=N[C@H](C(=O)N[C@@H](CC(C)C)C(=O)N[C@H](CCC(=O)O)C(=O)N[C@H](C(=O)N[C@H]2CCCCNC(=O)[C@H](CC(N)=O)NC(=O)[C@@H](CC(=O)O)NC(=O)[C@H](Cc3cnc[nH]3)NC(=O)[C@@H](Cc3ccccc3)NC(=O)[C@H]([C@@H](C)CC)NC(=O)[C@@H](CCCN)NC2=O)[C@@H](C)CC)CS1 [bacitracin] (HELM PEPTIDE1{[CC[C@H](C)[C@H](N)C1=N[C@H](C(=O)[*:2])CS1].L.[dE].I.K.[NCCC[C@@H](N[*:1])C(=O)[*:2]].I.[dF].H.[dD].N}$PEPTIDE1,PEPTIDE1,5:R3-11:R2$$$V2.0)
clustering in dendrogram of PM S-O-R response (FIG. 4) (E. coli MG1655): cluster

N[C@@H](C(=O)N[C@@H]1C(=O)N2C(C(=O)O)=C(Cl)CS[C@H]12)c1ccccc1 [cefaclor]
change of sensitivity of E. coli strain to panel compound (E. coli (MG1655); in the presence of 235 μg/ml sulfamethoxazole, cefaclor at 1.33, 2.66 and 5.33 μg/ml): increased sensitivity

Cc1nnc(SCC2=C(C(=O)O)N3C(=O)[C@@H](NC(=O)Cn4cnnn4)[C@H]3SC2)s1 [cefazolin]
change of sensitivity of E. coli strain to panel compound (E. coli (MG1655); in the presence of 10 μg/ml vancomycin, cefazolin at 2.0 and 4.0 μg/ml): increased sensitivity | change of sensitivity of E. coli strain to panel compound (E. coli (MG1655); in the presence of 235 μg/ml sulfamethoxazole, cefazolin at 0.5, 1.0, 2.0 and 4.0 μg/ml): increased sensitivity

CO[C@@]1(NC(=O)Cc2cccs2)C(=O)N2C(C(=O)O)=C(COC(N)=O)CS[C@@H]21 [cefoxitin]
change of sensitivity of E. coli strain to panel compound (E. coli (MG1655); in the presence of 10 μg/ml vancomycin, cefoxitin at 0.75 and 1.5 μg/ml): increased sensitivity

NC(=O)c1cc[n+](CC2=C(C(=O)O)N3C(=O)[C@@H](NC(=O)[C@@H](c4ccccc4)S(=O)(=O)[O-])[C@H]3SC2)cc1 [cefsulodin]
change of sensitivity of E. coli strain to panel compound (E. coli (MG1655); in the presence of 235 μg/ml sulfamethoxazole, cefsulodin at 8 and 16 μg/ml): increased sensitivity

O=C(Cc1cccs1)N[C@@H]1C(=O)N2C(C(=O)[O-])=C(C[n+]3ccccc3)CS[C@H]12 [cephaloridine]
change of sensitivity of E. coli strain to panel compound (E. coli (MG1655); in the presence of 235 μg/ml sulfamethoxazole, cephaloridine at 0.75, 1.5, 3.0 and 6.0 μg/ml): increased sensitivity

CC(=O)OCC1=C(C(=O)O)N2C(=O)[C@@H](NC(=O)Cc3cccs3)[C@H]2SC1 [cephalothin]
change of sensitivity of E. coli strain to panel compound (E. coli (MG1655); in the presence of 10 μg/ml vancomycin, cephalothin at 10 and 20 μg/ml): increased sensitivity | change of sensitivity of E. coli strain to panel compound (E. coli (MG1655); in the presence of 235 μg/ml sulfamethoxazole, cephalothin at 5.0, 10 and 20 μg/ml): increased sensitivity | clustering in dendrogram of PM S-O-R response (FIG. 4) (E. coli MG1655): cluster

C/C=C/C/C=C/CCC(=O)[C@H]1O[C@H]1C(N)=O [cerulenin]
PM response pattern (fingerprint) of cells exposed to the antimicrobial (E. coli MG1655): more closely resembled the multiple target antimicrobials

O=C(N[C@H](CO)[C@H](O)c1ccc([N+](=O)[O-])cc1)C(Cl)Cl [chloramphenicol]
clustering in dendrogram of PM S-O-R response (FIG. 4) (E. coli MG1655): cluster

[Cl][Cr]([Cl])[Cl] [chromium chloride]
change of sensitivity of E. coli strain to panel compound (E. coli (MG1655); in the presence of 235 μg/ml sulfamethoxazole, chromium chloride at 200 and 400 μg/ml): increased sensitivity

[Cl][Co][Cl] [cobalt chloride]
change of sensitivity of E. coli strain to panel compound (E. coli (MG1655); in the presence of 235 μg/ml sulfamethoxazole, cobalt chloride 12 and 25 μg/ml): increased sensitivity

CC(=O)O[C@H]1C[C@@]2(C)[C@@H](C[C@@H](O)[C@H]3[C@@]4(C)CC[C@@H](O)[C@@H](C)[C@@H]4CC[C@@]32C)/C1=C(\CCC=C(C)C)C(=O)O [fusidic acid]
change of sensitivity of E. coli strain to panel compound (E. coli (MG1655); in the presence of 10 μg/ml vancomycin, fusidic acid at 200 and 400 μg/ml): increased sensitivity

CCn1cc(C(=O)O)c(=O)c2ccc(C)nc21 [nalidixic acid]
change of sensitivity of E. coli strain to panel compound (E. coli (MG1655); in the presence of 10 μg/ml vancomycin, nalidixic acid at 1.0, 2.0 and 4.0 μg/ml): increased sensitivity | clustering in dendrogram of PM S-O-R response (FIG. 4) (E. coli MG1655): did not cluster with the other two DNA gyrase inhibiting chemicals

[Cl][Ni][Cl] [nickel chloride]
change of sensitivity of E. coli strain to panel compound (E. coli (MG1655); in the presence of 235 μg/ml sulfamethoxazole, nickel chloride at 20 and 40 μg/ml): increased sensitivity

CO[C@@H]1[C@@H](OC(N)=O)[C@@H](O)[C@H](Oc2ccc3c(O)c(NC(=O)c4ccc(O)c(CC=C(C)C)c4)c(=O)oc3c2C)OC1(C)C [novobiocin]
change of sensitivity of E. coli strain to panel compound (E. coli (MG1655); in the presence of 10 μg/ml vancomycin, novobiocin at 33 and 66 μg/ml): increased sensitivity | change of sensitivity of E. coli strain to panel compound (E. coli (MG1655); in the presence of 235 μg/ml sulfamethoxazole, novobiocin at 66 and 133 μg/ml): increased resistance

CCn1cc(C(=O)O)c(=O)c2cc3c(cc21)OCO3 [oxolinic acid]
clustering in dendrogram of PM S-O-R response (FIG. 4) (E. coli MG1655): clustered

C[C@@H]1O[C@@H]1P(=O)(O)O [phosphomycin]
clustering in dendrogram of PM S-O-R response (FIG. 4) (E. coli MG1655): cluster

[H]/N=C(/N)N[C@H]1[C@H](O)[C@@H](O)[C@H](O[C@@H]2O[C@@H](C)[C@](O)(C=O)[C@H]2O[C@@H]2O[C@@H](CO)[C@H](O)[C@@H](O)[C@@H]2NC)[C@@H](N/C(N)=N\[H])[C@@H]1O [streptomycin]
clustering in dendrogram of PM S-O-R response (FIG. 4) (E. coli MG1655): cluster

Nc1ccc(S(=O)(=O)Nc2nccs2)cc1 [sulfathiazole]
PM response pattern (fingerprint) of cells exposed to the antimicrobial (E. coli MG1655): more closely resembled the multiple target antimicrobials

COc1cc(Cc2cnc(N)nc2N)cc(OC)c1OC [trimethoprim]
change of sensitivity of E. coli strain to panel compound (E. coli (MG1655); in the presence of 10 μg/ml vancomycin, trimethoprim at 0.17, 0.33, 0.67 and 1.3 ng/ml): increased sensitivity | change of sensitivity of E. coli strain to panel compound (E. coli (MG1655); in the presence of 235 μg/ml sulfamethoxazole, trimethoprim at 0.17, 0.33, 0.67 and 1.3 ng/ml): increased sensitivity

coumermycin
clustering in dendrogram of PM S-O-R response (FIG. 4) (E. coli MG1655): clustered

polymyxin B
PM response pattern (fingerprint) of cells exposed to the antimicrobial (E. coli MG1655): more closely resembled the multiple target antimicrobials
